Test results: patent publication EP0345356A1, “PLATINUM COMPLEX AND THERAPEUTIC AGENT FOR MALIGNANT TUMOR” (TORAY INDUSTRIES, INC., priority 1987, dated 1989)

Legend:
[1] = test system: L1210 murine leukemia cells; assay: Antitumor activity against L1210 leukemia in mice; type: in vivo, CDF1 mice; conditions: for Survival days (mean ± SD) / T/C (%): given on 1st, 5th and 9th days after tumor inoculation; for Survival rate: number of 30 days survival mice / group
Method: L1210 murine leukemia cells which were subcultured in DBA/2 mouse were inoculated intraperitoneally into CDF1 mice at 10^5 cells/mouse. Each experimental group was composed of 6-10 mice (male, 6-weeks old). Each test compound was administered three times, i.e., on the 1st, 5th and 9th days after tumor inoculation. […] Each compound was dissolved or suspended in 0.05% "Tween 80" solution and administered in mice.

Slc:ICR mice = assay: Acute toxicity test in mice (LD50, Miller-Tainter method); type: in vivo; conditions: intraperitoneal, Slc:ICR mice (male), death rate on the 14th day
Method: Platinum complexes to be tested was administered intraperitoneally to Slc:ICR mice (male, 5 weeks old, 6 mice/group). Each complex was used in the form of a solution or suspension in a 0.05% "Tween 80" in saline. The LD50 value was calculated by the Miller-Tainter method from the death rate on the 14th day from the date of the administration.

| SMILES | Survival days (mean ± SD) ([1]; Dose 1 mg/kg) [days] | T/C (%) ([1]; Dose 1 mg/kg) | Survival rate ([1]; Dose 1 mg/kg) | Survival days (mean ± SD) ([1]; Dose 10 mg/kg) [days] | T/C (%) ([1]; Dose 10 mg/kg) | Survival rate ([1]; Dose 10 mg/kg) | Survival days (mean ± SD) ([1]; Dose 25 mg/kg) [days] | T/C (%) ([1]; Dose 25 mg/kg) | Survival rate ([1]; Dose 25 mg/kg) | Survival days (mean ± SD) ([1]; Dose 50 mg/kg) [days] | T/C (%) ([1]; Dose 50 mg/kg) | Survival rate ([1]; Dose 50 mg/kg) | Survival days (mean ± SD) ([1]; Dose 100 mg/kg) [days] | T/C (%) ([1]; Dose 100 mg/kg) | Survival rate ([1]; Dose 100 mg/kg) | Survival days (mean ± SD) ([1]; Dose 200 mg/kg) [days] | T/C (%) ([1]; Dose 200 mg/kg) | Survival rate ([1]; Dose 200 mg/kg) | LD50 values (Slc:ICR mice) [mg/kg] |
| --- | --- | --- | --- | --- | --- | --- | --- | --- | --- | --- | --- | --- | --- | --- | --- | --- | --- | --- | --- |
| NC1CCCCC1N.O=C([O-])C1CCCO1.O=C([O-])C1CCCO1.[Pt+2] (racemic) [XXIV-2, Bis(DL-2-tetrahydrofurancarboxylato)(trans-ℓ-dach)-platinum(II)] | 11.5 ± 1.9 | 135 | 0/6 | 20.3 ± 2.7 | 239 | 0/6 | 16.7 ± 4.3 | 196 | 0/6 | 10.2 ± 1.0 | 120 | 0/6 | 6.3 ± 0.8 | 74 | 0/6 | 4.8 ± 1.3 | 57 | 0/6 | 45 |
| NC1CCCCC1N.O=C([O-])c1cc2ccccc2[nH]1.O=C([O-])c1cc2ccccc2[nH]1.[Pt+2] [XXIII-1, Bis(indole-2-carboxylato)(trans-ℓ-dach)platinum(II)] | 8.5 ± 0.8 | 102 | 0/6 | 10.5 ± 1.0 | 127 | 0/6 | 15.0 ± 5.4 | 181 | 0/6 | 18.7 ± 9.2 | 225 | 1/6 | 21.2 ± 7.9 | 255 | 2/6 | 8.2 ± 1.9 | 99 | 0/6 | 180 |
| NC1CCCCC1N.O=C([O-])c1ccco1.O=C([O-])c1ccco1.[Pt+2] (stereo not drawn) [XXIV-1, Bis(2-furancarboxylato)(trans-ℓ-dach)platinum(II)] | 9.5 ± 0.8 | 117 | 0/6 | 14.2 ± 2.9 | 175 | 0/6 | 20.2 ± 4.9 | 249 | 1/6 | 17.3 ± 6.3 | 214 | 1/6 | 9.0 ± 1.5 | 111 | 0/6 | 6.0 | 74 | 0/6 | 87 |
| CC(=O)N1c2ccccc2CC1C(=O)[O-].CC(=O)N1c2ccccc2CC1C(=O)[O-].NC1CCCCC1N.[Pt+2] (racemic) [XXIII-2, Bis(DL-1-acetylindoline-2-carboxylato)(trans-ℓ-dach)platinum(II)] | 8.3 ± 0.5 | 102 | 0/6 | 12.7 ± 8.6 | 157 | 1/6 | 14.2 ± 3.3 | 175 | 0/6 | 13.3 ± 6.1 | 164 | 0/6 | 22.2 ± 9.0 | 274 | 3/6 | 14.0 ± 2.4 | 173 | 0/6 | >200 |
